From PubChem BioAssay AID248 (DTP/NCI, 2004)
Inconclusive results and toxic doses are left out. Cut-off read from the data, not from the text of the source: active = T/C of 150% or more; inactive = T/C below 125%.

System: L1210 leukemia ip in BDF1 mice, survival T/C
Assay: NCI In Vivo Anticancer Drug Screen. Data for tumor model L1210 Leukemia (intraperitoneal) in B6D2F1 (BDF1) mice
Settings: endpoint: mean survival time, higher = longer survival
How it was run: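 Transplanted-tumor mice were given test agent; controls received vehicle only. Survival readings from the two groups were divided (treated over control).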

[1] = dose: 50.0 mg/kg/injection, schedule: Q01DX009 (ip), vehicle: Klucel (hydroxypropylcellulose) (HPC)
[2] = dose: 100.0 mg/kg/injection, schedule: Q01DX009 (ip), vehicle: Klucel (hydroxypropylcellulose) (HPC)
[3] = dose: 100.0 mg/kg/injection, schedule: Q01DX001 (ip), vehicle: Klucel (hydroxypropylcellulose) (HPC)
[4] = dose: 200.0 mg/kg/injection, schedule: Q01DX001 (ip), vehicle: Klucel (hydroxypropylcellulose) (HPC)
[5] = dose: 200.0 mg/kg/injection, schedule: Q01DX009 (ip), vehicle: Klucel (hydroxypropylcellulose) (HPC)
[6] = dose: 400.0 mg/kg/injection, schedule: Q01DX001 (ip), vehicle: Klucel (hydroxypropylcellulose) (HPC)
[7] = dose: 100.0 mg/kg/injection, schedule: Q04DX003 (ip), vehicle: Klucel (hydroxypropylcellulose) (HPC)
[8] = dose: 200.0 mg/kg/injection, schedule: Q04DX003 (ip), vehicle: Klucel (hydroxypropylcellulose) (HPC)
[9] = dose: 50.0 mg/kg/injection, schedule: Q01DX001 (ip), vehicle: carboxymethylcellulose (CMC)
[10] = dose: 100.0 mg/kg/injection, schedule: Q01DX001 (ip), vehicle: carboxymethylcellulose (CMC)
[11] = dose: 100.0 mg/kg/injection, schedule: Q04DX002 (ip), vehicle: Klucel (hydroxypropylcellulose) (HPC)
[12] = dose: 200.0 mg/kg/injection, schedule: Q01DX001 (ip), vehicle: carboxymethylcellulose (CMC)
[13] = dose: 200.0 mg/kg/injection, schedule: Q04DX002 (ip), vehicle: Klucel (hydroxypropylcellulose) (HPC)
[14] = dose: 400.0 mg/kg/injection, schedule: Q01DX001 (ip), vehicle: carboxymethylcellulose (CMC)
[15] = dose: 400.0 mg/kg/injection, schedule: Q04DX002 (ip), vehicle: Klucel (hydroxypropylcellulose) (HPC)
[16] = dose: 400.0 mg/kg/injection, schedule: Q04DX003 (ip), vehicle: Klucel (hydroxypropylcellulose) (HPC)

Measured: T/C

CCC/C(C)=N/Nc1ccccn1
inactive: dose: 12.5 mg/kg/injection, schedule: Q01DX009 (ip), vehicle: Klucel (hydroxypropylcellulose) (HPC) 97 % of control | dose: 25.0 mg/kg/injection, schedule: Q01DX009 (ip), vehicle: Klucel (hydroxypropylcellulose) (HPC) 94 % of control | dose: 25.0 mg/kg/injection, schedule: Q01DX009 (ip), vehicle: acetone 106 % of control | [1] 102 % of control | dose: 50.0 mg/kg/injection, schedule: Q01DX009 (ip), vehicle: acetone 87 % of control | dose: 50.0 mg/kg/injection, schedule: Q04DX003 (ip), vehicle: acetone 103 % of control | dose: 100.0 mg/kg/injection, schedule: Q01DX001 (ip), vehicle: acetone 98 % of control | [2] 102 % of control | dose: 100.0 mg/kg/injection, schedule: Q04DX003 (ip), vehicle: acetone 97 % of control | dose: 200.0 mg/kg/injection, schedule: Q01DX001 (ip), vehicle: acetone 103 % of control

Brc1ccccc1C=C1c2ccccc2-c2ccccc21
inactive: dose: 100.0 mg/kg/injection, schedule: Q04DX003 (ip), vehicle: saline with Tween-80 102 % of control | dose: 200.0 mg/kg/injection, schedule: Q04DX003 (ip), vehicle: saline with Tween-80 101 % of control | dose: 400.0 mg/kg/injection, schedule: Q04DX003 (ip), vehicle: saline with Tween-80 96 % of control

C=CC(C)(CC/C=C(\C)CCC=C(C)C)OC(=O)NC(=O)C(Cl)(Cl)Cl (stereo unspecified)
inactive: [1] 103 % of control | [3] 111 % of control | [2] 100 % of control | [4] 101 % of control | [5] 97 % of control | [6] 105 % of control

CCOC(=O)C1C(=O)C2CCc3c(ccc4ccccc34)N2C1=O (stereo unspecified)
inactive: [7] 98 % of control | [8] 104 % of control

C=CCNC(=S)Nc1cccc2ccccc12
inactive: dose: 12.5 mg/kg/injection, schedule: Q04DX003 (ip), vehicle: Klucel (hydroxypropylcellulose) (HPC) 105 % of control | dose: 25.0 mg/kg/injection, schedule: Q04DX003 (ip), vehicle: Klucel (hydroxypropylcellulose) (HPC) 96 % of control | dose: 50.0 mg/kg/injection, schedule: Q04DX003 (ip), vehicle: Klucel (hydroxypropylcellulose) (HPC) 105 % of control

CC1(C)C2CCC(I)(C2)C1I (stereo unspecified)
inactive: dose: 100.0 mg/kg/injection, schedule: Q01DX001 (ip), vehicle: saline with Tween-80 93 % of control | dose: 200.0 mg/kg/injection, schedule: Q01DX001 (ip), vehicle: saline with Tween-80 90 % of control | dose: 400.0 mg/kg/injection, schedule: Q01DX001 (ip), vehicle: saline with Tween-80 93 % of control

COC12C3C=CC4C(C=C3)C4C1C2(Br)Br (stereo unspecified)
inactive: dose: 50.0 mg/kg/injection, schedule: Q01DX001 (ip), vehicle: Klucel (hydroxypropylcellulose) (HPC) 105 % of control | [3] 96 % of control | [4] 105 % of control

CC1=CCC2C(=O)C=CC(=O)C2C1 (stereo unspecified)
inactive: dose: 5.0 mg/kg/injection, schedule: Q01DX009 (ip), vehicle: Klucel (hydroxypropylcellulose) (HPC) 98 % of control | dose: 10.0 mg/kg/injection, schedule: Q01DX001 (ip), vehicle: carboxymethylcellulose (CMC) 107 % of control | dose: 10.0 mg/kg/injection, schedule: Q01DX009 (ip), vehicle: Klucel (hydroxypropylcellulose) (HPC) 89 % of control | dose: 20.0 mg/kg/injection, schedule: Q01DX001 (ip), vehicle: carboxymethylcellulose (CMC) 109 % of control | dose: 20.0 mg/kg/injection, schedule: Q01DX009 (ip), vehicle: Klucel (hydroxypropylcellulose) (HPC) 96 % of control | dose: 40.0 mg/kg/injection, schedule: Q01DX001 (ip), vehicle: carboxymethylcellulose (CMC) 107 % of control | dose: 80.0 mg/kg/injection, schedule: Q01DX001 (ip), vehicle: carboxymethylcellulose (CMC) 109 % of control

CCOC(=O)C(C(=O)OCC)C(CC(=O)C1CC1)c1ccccc1 (stereo unspecified)
inactive: [9] 92 % of control | [10] 95 % of control | [11] 97 % of control | [12] 92 % of control | [13] 101 % of control | [14] 95 % of control | [15] 111 % of control

CCOC(=O)c1cnc(C)nc1Nc1ccccc1
inactive: [7] 97 % of control | [8] 103 % of control | [16] 108 % of control

Cc1cccc(Nc2cc(=O)[nH]c(=O)[nH]2)c1C
inactive: dose: 150.0 mg/kg/injection, schedule: Q01DX001 (ip), vehicle: saline with Tween-80 90 % of control | dose: 300.0 mg/kg/injection, schedule: Q01DX001 (ip), vehicle: saline with Tween-80 95 % of control

NC(=O)NC1CC1(c1ccccc1)c1ccccc1 (stereo unspecified)
inactive: dose: 42.0 mg/kg/injection, schedule: Q01DX009 (ip), vehicle: other 105 % of control | dose: 72.0 mg/kg/injection, schedule: Q01DX009 (ip), vehicle: other 111 % of control | dose: 120.0 mg/kg/injection, schedule: Q01DX009 (ip), vehicle: other 105 % of control | dose: 200.0 mg/kg/injection, schedule: Q01DX009 (ip), vehicle: other 93 % of control

O=P(O)(CO)CO
inactive: dose: 100.0 mg/kg/injection, schedule: Q04DX003 (ip), vehicle: saline 109 % of control | dose: 200.0 mg/kg/injection, schedule: Q04DX003 (ip), vehicle: saline 95 % of control

C[Si](C)(CCl)CCCO[Si](C)(C)CCl
inactive: [9] 102 % of control | [10] 108 % of control | [12] 96 % of control | [14] 98 % of control

Cc1c2cnccc2c(C)c2c1c1ccccc1n2CCCC#N
inactive: [7] 105 % of control | [8] 102 % of control | [16] 109 % of control

O=P(Oc1ccccc1)(OP(=O)(Oc1ccccc1)N(CCCl)CCCl)N(CCCl)CCCl (stereo unspecified)
inactive: dose: 12.5 mg/kg/injection, schedule: Q01DX Z (ip), vehicle: methylcellulose (MC) 97 % of control | dose: 25.0 mg/kg/injection, schedule: Q01DX Z (ip), vehicle: methylcellulose (MC) 102 % of control | dose: 50.0 mg/kg/injection, schedule: Q01DX Z (ip), vehicle: methylcellulose (MC) 96 % of control | dose: 100.0 mg/kg/injection, schedule: Q01DX Z (ip), vehicle: methylcellulose (MC) 96 % of control | dose: 250.0 mg/kg/injection, schedule: Q01DX Z (ip), vehicle: other 98 % of control | dose: 500.0 mg/kg/injection, schedule: Q01DX Z (ip), vehicle: other 104 % of control

COC(=O)c1ccccc1NC(=O)Nc1cc([N+](=O)[O-])ccc1OC
inactive: [1] 90 % of control | [2] 97 % of control | [5] 108 % of control

OB(O)C1=CC(c2ccccc2)(c2ccccc2)N=C1
inactive: [3] 103 % of control | [4] 94 % of control | [6] 92 % of control

Cc1cnc(-n2cc(C)c(-c3ccccc3O)n2)nc1-c1ccccc1O
inactive: [11] 96 % of control | [13] 88 % of control | [15] 100 % of control

CCOC(=O)C(C(C)=O)C(C)=O
inactive: dose: 50.0 mg/kg/injection, schedule: Q01DX001 (ip), vehicle: saline 101 % of control | dose: 100.0 mg/kg/injection, schedule: Q01DX001 (ip), vehicle: saline 107 % of control | dose: 200.0 mg/kg/injection, schedule: Q01DX001 (ip), vehicle: saline 97 % of control | dose: 400.0 mg/kg/injection, schedule: Q01DX001 (ip), vehicle: saline 97 % of control
